“And” between values parts separate entries of the source, which are not always exact repeats. Equal values may be shown once. “Also recorded” adds a separate entry of the source.
How the values were obtained:
UB/OC-1 cells [1] = assay: ROS generation by H2DCFDA fluorescence, confocal microscopy; format: cell-based
Text: Imaging of ROS generation was done as previously described (P. Puntambekar et al., Essential role of Rac1/NADPH oxidase in nerve growth factor induction of TRPV1 expression, J. NEUROCHEM. 95: 1689-1703 (2005)).

NOX3 mRNA [2] = assay: NOX3 mRNA by real time RT-PCR in UB/OC-1 cells; format: cell-based
Experimental: RNA was isolated by adding 1 ml TRI reagent to 100 mg of cochlear tissue or 0.5 ml TRI reagent per well of each six well plate. Tissues were homogenized in TRI reagent using a Polytron (setting 7, 15 sec) and centrifuged at 12,000×g for 10 min at 4° C. The remainder of the procedure was identical to that described in D. Mukherjea et al., NEUROSCIENCE 139:733-740 (2006).
(§1) For real time reverse transcriptase polymerase chain reaction (RT-PCR), one microgram of total RNA was converted to cDNA using iScript cDNA Synthesis Kit (Bio-Rad, Hercules, Calif.) and sample preparations were performed essentially as previously described (D. Mukherjea et al., NEUROSCIENCE 139:733-740 (2006)). Amplification and detection was performed with the Cepheid Smart Cycler Detection System. On completion of amplification, the melting curve analysis was performed by cooling the reaction to 60° C. and then heating slowly 95° C., according to the instruction of manufacturer (Cepheid systems). The cycle number at which the sample reaches the threshold fluorescent intensity is termed the cycle threshold (Ct). The relative change in mRNA levels between untreated control (1) and treated sample (2) was measured using the formula: 2-ΔΔCt (R. Soong et al., Quantitative reverse transcription-polymerase chain reaction detection of cytokeratin 20 in noncolorectal lymph nodes, CLIN. CANCER RES. 7:3423-3429 (2001)). Relative change in mRNA levels between samples was expressed as a percentage of normal control. Negative controls for both target gene and GAPDH was used for all reaction groups. Real time PCR products were analyzed on a 2% agarose gel to verify the correct product sizes and visualization of the amplified product was effected using the dye SyBr Green I (Molecular Probes, Eugene, Oreg.).

NOX3 = NOX3 immunoreactivity in cochlea sections; format: in vivo, male Wistar rats
KIM-1 mRNA [3] = assay: KIM-1 mRNA by real time RT-PCR in UB/OC-1 cells; format: cell-based
Experimental: as §1, with “Negative controls for both target gene and GAPDH was used for all reaction groups.” left out, “Oreg.). […]” for “Oreg.).”

TRPV1 mRNA [4] = assay: TRPV1 mRNA by real time RT-PCR in UB/OC-1 cells; format: cell-based
Experimental: as §1, with “Negative controls for both target gene and GAPDH was used for all reaction groups.” left out, “Oreg.). […]” for “Oreg.).”

KIM-1 = KIM-1 immunoreactivity in cochlea sections; format: in vivo, male Wistar rats; conditions: 72 h
Experimental: Cochleas were harvested 72 h later, fixed in 4% paraformaldehyde, decalcified, sectioned and stained for KIM1 immunoreactivity. FIG. 3C is a panel of photomicrographs of the cochlea sections from following the different treatment conditions and stained for KIM-1 immunoreactivity. […] (SVA-stria vascularis, OHC-outer hair cell, RM-Reissner's membrane, SG—spiral ganglion).

UB/OC-1 cells [5] = assay: Intracellular Ca2+ release by Fluo-4AM imaging; format: cell-based
Experimental: UB/OC-1 cells were grown on glass coverslips. […] After incubation, cells were washed once with physiological buffer and then imaged by a Fluoview confocal microscope (Olympus Imaging America Inc., Center Valley, Pa., USA).

UB/OC-1 hair cells = assay: Cell viability by trypan blue staining; format: cell-based
Experimental: Cells were then treated with trypan blue and the number of viable cells per high power field determined and expressed as a percent of total cell per field. […] Data are present as the mean±standard error from four independent coverslips.

[6] = system: AT6.1 rat prostate cancer cells; assay: Cisplatin killing of tumor cells (imaging); format: cell-based
Text: Cells were fixed with 4% paraformaldehyde and imaged. FIG. 5B is a panel of photomicrographs of the cell images.

[7] = system: TRP and P2x receptor channels in UB/OC-1 cells; assay: FM1-43 dye uptake via TRP and P2x channels; format: cell-based; conditions: for basal FM1-43 uptake (fluorescence): added alone
Text: FM1-43 is selectively taken up by cells expressing the TRP and P2x receptor channels.
Cells were scanned every 6 sec by Argon laser (480 nm) and at the 6th scan FM1-43 dye was dropped on the cells. FIG. 6 is panel of photomicrographs of the cells following dye exposure. […] Each gray-scale image to the right of each fluorescence image is the differential interference constrast image for the cells shown in the corresponding fluorescence image.

[8] = system: outer hair cells of the organ of Corti; assay: Outer hair cell damage by scanning electron microscopy, i.p. transplatin; format: in vivo, rat; conditions: 72 h
KIM-1 mRNA [9] = assay: Kidney KIM-1 mRNA by real time RT-PCR; format: in vivo, male Wistar rats; conditions: 72 h
Text: (§2) Kidneys were harvested, total RNA was isolated, reverse transcribed and real time RT-PCR performed substantially as described herein above. FIG. 8A is a bar graph of the increase in mRNA expression for each of KIM-1 (green), NOX3 (blue) and TRPV1 (red) observed. […] Attenuation of these markers by transplatin is indicative of its nephroprotective role.

NOX3 mRNA [10] = assay: Kidney NOX3 mRNA by real time RT-PCR; format: in vivo, male Wistar rats; conditions: 72 h
Text: as §2

TRPV1 mRNA [11] = assay: Kidney TRPV1 mRNA by real time RT-PCR; format: in vivo, male Wistar rats; conditions: 72 h
Text: as §2

[12] = system: outer hair cells of the organ of Corti; assay: Outer hair cell damage/loss by SEM, trans-tympanic transplatin; format: in vivo, Wistar rats
Experimental: Post-treatment ABRs were conducted 72 h later. […] This was abrogated by pretreatment with trans-tympanic transplatin. […] Arrows indicate areas of damage to outer hair cells.

[13] = Cisplatin-induced hearing loss, ABR threshold shifts, i.p. transplatin; format: in vivo, male Wistar rats
Text: Data are presented as the mean±standard error of 8 ears examined from 4 animals per group.

Body weight loss = format: in vivo, rat; conditions: data not shown
[14] = system: dorsal root ganglion (DRG) cells; assay: NGF-induced ROS generation in dorsal root ganglion cells (H2DCFDA); format: cell-based, neonatal mice; conditions: transplatin 2.5 μM 30 min prior to NGF 100 ng/ml
Experimental: Recent studies have shown that ROS generation is the single most important mediator of inflammation. Dorsal root ganglion (DRG) cells isolated from neonatal mice have shown increased ROS generation in response to nerve growth factor (NGF; data not shown). […] Fluorescent images were obtained at 0 sec and collected over a period of 5 min after addition of NGF (100 ng/ml). NGF generated ROS is shown by changes in fluorescence intensity over time.

[15] = system: HEK-293 cells stably transfected with TRPV1 receptor; assay: Capsaicin-induced ROS generation in HEK-VR1 cells; format: cell-based; conditions: transplatin 2.5 μM pre-treatment; data not shown
Text: Thus, transplatin can be useful in the treatment of inflammatory conditions, such as arthritis, inflammatory and chronic pain and cancer pain.

[16] = Body temperature after i.p. transplatin; format: in vivo, rat; conditions: transplatin 5.5 mg/kg i.p., every 30 min for 150 min, 2 rats
Experimental: TRPV1 antagonists were initially developed as novel treatments for inflammatory pain. However, it was observed that the administration of classical TRPV1 antagonists produced hyperthermia in animals and human (N. R. Gavva, Body-temperature maintenance as the predominant function of the vanilloid receptor TRPV1. TRENDS PHARMACOL SCI 29:550-557 (2007)), underscoring a role of TRPV1 in the control of body temperature. […] Body temperature was then recorded every 30 min for 150 min. FIG. 11 is a graph of the results observed in two rats (Tp) and a control animal (PBS).

cellular DNA = conditions: cited from earlier work
[17] = transplatin 1, 2.5, 10 μM 30 min prior to cisplatin 5 μM 24 h
[18] = transplatin 5.5 mg/kg i.p. followed by cisplatin 11 mg/kg i.p.
[19] = transplatin 1 μM 30 min prior to cisplatin 5 μM
[20] = transplatin 1 mg/kg i.p. then cisplatin 11 mg/kg i.p.
[21] = transplatin 5.5 mg/kg i.p. alone
[22] = trans-tympanic transplatin 50 μl of 0.5 mg/ml, then cisplatin 11 mg/kg i.p.

N.N.[Cl][Pt][Cl] [cisplatin, reference compound]
ROS generation (H2DCFDA fluorescence) (UB/OC-1 cells [1]; cisplatin 2.5 μM, 30 min): marked increase in ROS generation; also recorded: increases ROS generation | NOX3 mRNA (NOX3 mRNA [2]; cisplatin 5 μM): increase in NOX3 mRNA | NOX3 immunoreactivity in cochlea (OHC, stria vascularis, spiral ganglion) (NOX3; cisplatin 11 mg/kg i.p., 72 h): increased NOX3 protein | increase in KIM-1 mRNA expression over vehicle treated controls (KIM-1 mRNA [3]; cisplatin 5 μM, 24 h): 4 fold and 4±0.5 fold | increase in TRPV1 mRNA expression over vehicle treated controls (TRPV1 mRNA [4]; cisplatin 5 μM, 24 h): 3.6 fold and 3.5±0.7 fold | KIM-1 immunolabeling in organ of Corti / cochlea sections (KIM-1; cisplatin 11 mg/kg i.p.): induction of KIM-1 immunolabeling | intracellular Ca2+ (Fluo-4AM fluorescence) (UB/OC-1 cells [5]; cisplatin 5 μM, 30 min): increased fluorescence | cell death (UB/OC-1 hair cells; cisplatin 20 μM, 24 h): ~80% | cell loss ([6]; cisplatin 100 μM, 24 h): ~80% | uptake of FM1-43 dye ([7]; cisplatin 5 μM alone, 30 min): increased uptake of FM1-43 dye | outer hair cells damaged per field, basal turn of organ of Corti ([8]; cisplatin 11 mg/kg i.p.): ~40% | kidney KIM-1 mRNA expression (KIM-1 mRNA [9]; cisplatin 11 mg/kg i.p.): 50 fold | kidney NOX3 mRNA expression (NOX3 mRNA [10]; cisplatin 11 mg/kg i.p.): 4 fold | kidney TRPV1 mRNA expression (TRPV1 mRNA [11]; cisplatin 11 mg/kg i.p.): 6 fold | outer hair cell damage/loss ([12]; cisplatin 11 mg/kg i.p., 72 h): ~70%

N.N.N.N.N.N.N.N.N.N.N.N.N.N.[Cl-].[Cl-].[Cl-].[Cl-].[Cl-].[Cl-].[O-2].[O-2].[Ru+3].[Ru+3].[Ru+4] [ruthenium red, reference compound]
basal FM1-43 uptake (fluorescence) [7]: less inhibition of basal fluorescence than transplatin

N.N.[Cl][Pt][Cl] [transplatin, trans-diamminedichloroplatinum (II)]
cisplatin-induced increase in ROS generation (UB/OC-1 cells [1]; pretreatment with transplatin 1 μM, then cisplatin 2.5 μM 30 min): attenuated; also recorded: significantly reduced | ROS generation (UB/OC-1 cells [1]; transplatin administered alone): did not stimulate ROS generation | cisplatin-induced increase in NOX3 mRNA (NOX3 mRNA [2]; [17]): attenuated; also recorded: down regulates the increase in NOX3 mRNA | NOX3 mRNA expression (NOX3 mRNA [2]; transplatin alone (1, 2.5 μM)): almost no expression of NOX3 mRNA | cisplatin-induced increase in NOX3 in cochlea (NOX3; transplatin 5.5 mg/kg i.p. immediately before cisplatin 11 mg/kg i.p., 72 h): reduced | NOX3 expression in cochlea vs vehicle control (NOX3; transplatin alone): did not increase NOX3 expression | cisplatin-induced KIM-1 mRNA (KIM-1 mRNA [3]; [17]): attenuated to control levels | cisplatin-induced TRPV1 mRNA expression (TRPV1 mRNA [4]; transplatin 1, 2.5, 10 μM 30 min prior to cisplatin 5 μM 24 h, 10 μM best inhibition): attenuated; also recorded: abrogated by transplatin at higher concentrations | cisplatin-induced KIM-1 immunolabeling in cochlea (KIM-1; [18]): reduced; also recorded: decreased | cisplatin-induced increase in intracellular Ca2+ (UB/OC-1 cells [5]; [19]): abrogated | cell survival (UB/OC-1 hair cells; transplatin 1, 2.5, 10 μM 30 min prior to cisplatin 20 μM 24 h, depending on dose): 80-97% | cell survival compared to vehicle control ([6]; transplatin alone): did not cause significant change in cell survival | basal FM1-43 uptake (fluorescence) [7]: reduced fluorescence below that of the control cells | FM1-43 dye entry after cisplatin [7, 19]: decreased entry of the dye | animals protected [13, 20]: 75% | reductions in ABR thresholds (number protected) [13, 20]: 6 of 8 | auditory protection ([13]; transplatin 3 mg/kg i.p. then cisplatin 11 mg/kg i.p.): complete protection | auditory protection ([13]; transplatin 5.5 mg/kg i.p. then cisplatin 11 mg/kg i.p.): complete protection | ABR thresholds ([13]; transplatin alone): did not affect the ABR thresholds | outer hair cells damaged per field, basal turn of organ of Corti ([8]; transplatin 5.5 mg/kg i.p. pretreatment then cisplatin 11 mg/kg i.p.): below 10% | weight loss (Body weight loss; transplatin by itself): did not produce weight loss | cisplatin-mediated weight loss (Body weight loss; transplatin with cisplatin): did not inhibit cisplatin-mediated weight loss | kidney KIM-1 mRNA expression compared to PBS controls (KIM-1 mRNA [9]; [21]): 1.7 fold | kidney KIM-1 mRNA expression (KIM-1 mRNA [9]; [18]): 1.1 fold | kidney NOX3 mRNA expression compared to PBS controls (NOX3 mRNA [10]; [21]): 1.3 fold | kidney NOX3 mRNA expression (NOX3 mRNA [10]; [18]): 1.7 fold | kidney TRPV1 mRNA expression compared to PBS controls (TRPV1 mRNA [11]; [21]): 0.5 fold | kidney TRPV1 mRNA expression (TRPV1 mRNA [11]; [18]): 1.5 fold | NGF-induced ROS generation [14]: inhibited ROS generation | ROS generation by 10 μM capsaicin [15]: inhibited | cisplatin-induced outer hair cell damage (SEM morphology) [12, 22]: almost completely abrogated | outer hair cell damage/loss [12, 22]: ~7% | body temperature [16]: did not produce any apparent increase in body temperature; also recorded: no apparent trend of higher body temperatures | time of maximum DNA binding (cellular DNA): 6 h

Source: patent publication US9248150B2 (priority 2009, dated 2016)
